Assay results reported in the NIST ThermoML archive (doi:10.1016/j.jct.2004.04.004).
± gives the expanded uncertainty stated by the source.

Tests used:
[1] = refractive index (Na D-line) (dimensionless); settings: 293.15 K; 101.33 kPa; Liquid; Standard Abbe refractometry
[2] = 298.15 K; 101.33 kPa; Liquid

Row | SMILES | refractive index [1] | mass density [2]
1 | Cc1ccccc1C [1,2-dimethylbenzene] | 1.5057 ± 0.0007 | 875.73 ± 0.44 kg/m3
2 | Cc1cccc(C)c1 [1,3-dimethylbenzene] | 1.4973 ± 0.0008 | 859.83 ± 0.99 kg/m3
3 | Cc1ccc(C)cc1 [1,4-dimethylbenzene] | 1.49577 ± 0.00075 | 856.58 ± 0.63 kg/m3
4 | C[S+](C)[O-] [dimethyl sulfoxide] | 1.4785 ± 0.0007 | 1095.62 ± 0.39 kg/m3
